In the OligoGym collection:
HELM strings list units from the 5' end as sugar, base in round brackets, then linkage (d deoxyribose, r ribose, m 2'-O-methyl, p phosphodiester). Strings are as the collection lists them, not checked against the first reports. ss, as = sense and antisense strand; [fl2r] = 2'-fluoro

Details: siRNA
Note: test system not given here.

Question: With “RNA1{d(G)p.d(C)p.d(A)p.d(G)p.d(C)p.d(A)p.d(C)p.d(G)p.d(A)p.d(C)p.d(U)p.d(U)p.d(C)p.d(U)p.d(U)p.d(C)p.d(A)p.d(A)p.d(G)p.r(T)p.r(T)}|RNA2{d(C)p.d(U)p.d(U)p.d(G)p.d(A)p.d(A)p.d(G)p.d(A)p.d(A)p.d(G)p.d(U)p.d(C)p.d(G)p.d(U)p.d(G)p.d(C)p.d(U)p.d(G)p.d(C)p.r(T)p.r(T)}$$$RNA1{StrandType:ss}|RNA2{StrandType:as}$” as the substance, how does the target mRNA knockdown read?
Answer: 0%

Question: With “RNA1{d(G)p.d(C)p.d(A)p.d(G)p.d(C)p.d(A)p.d(C)p.d(G)p.d(A)p.d(C)p.d(U)p.d(U)p.d(C)p.d(U)p.d(U)p.d(C)p.d(A)p.d(A)p.d(G)p.r(T)p.r(T)}|RNA2{r(C)p.r(U)p.r(U)p.r(G)p.r(A)p.r(A)p.r(G)p.r(A)p.r(A)p.r(G)p.r(U)p.r(C)p.r(G)p.r(U)p.r(G)p.r(C)p.r(U)p.r(G)p.r(C)p.r(T)p.r(T)}$$$RNA1{StrandType:ss}|RNA2{StrandType:as}$” as the substance, how does the target mRNA knockdown read?
Answer: 38%

Question: With “RNA1{m(A)p.m(A)p.m(G)p.m(G)p.m(A)p.m(G)p.m(A)p.m(U)p.m(C)p.m(A)p.m(A)p.m(C)p.m(A)p.m(U)p.m(U)p.m(U)p.m(U)p.m(C)p.m(A)p.r(T)p.r(T)}|RNA2{[fl2r](U)p.r(G)p.r(A)p.r(A)p.r(A)p.r(A)p.[fl2r](U)p.r(G)p.r(U)p.r(U)p.r(G)p.r(A)p.[fl2r](U)p.[fl2r](C)p.[fl2r](U)p.[fl2r](C)p.[fl2r](C)p.[fl2r](U)p.[fl2r](U)p.r(T)p.r(T)}$$$RNA1{StrandType:ss}|RNA2{StrandType:as}$” as the substance, how does the target mRNA knockdown read?
Answer: 71%

Question: For “RNA1{m(A)p.m(A)p.m(G)p.m(G)p.m(A)p.m(G)p.m(A)p.m(U)p.m(C)p.m(A)p.m(A)p.m(C)p.m(A)p.m(U)p.m(U)p.m(U)p.m(U)p.m(C)p.m(A)p.r(T)p.r(T)}|RNA2{m(U)p.r(G)p.r(A)p.r(A)p.r(A)p.r(A)p.m(U)p.r(G)p.r(U)p.r(U)p.r(G)p.r(A)p.m(U)p.m(C)p.m(U)p.m(C)p.m(C)p.m(U)p.m(U)p.r(T)p.r(T)}$$$RNA1{StrandType:ss}|RNA2{StrandType:as}$”, which target mRNA knockdown is on record?
Answer: 29%

Question: With “RNA1{m(A)p.m(A)p.m(G)p.m(G)p.m(A)p.m(G)p.m(A)p.m(U)p.m(C)p.m(A)p.m(A)p.m(C)p.m(A)p.m(U)p.m(U)p.m(U)p.m(U)p.m(C)p.m(A)p.r(T)p.r(T)}|RNA2{r(U)p.r(G)p.r(A)p.r(A)p.r(A)p.r(A)p.r(U)p.r(G)p.r(U)p.r(U)p.r(G)p.r(A)p.r(U)p.r(C)p.r(U)p.r(C)p.r(C)p.m(U)p.m(U)p.r(T)p.r(T)}$$$RNA1{StrandType:ss}|RNA2{StrandType:as}$” as the substance, how does the target mRNA knockdown read?
Answer: 77%

Question: With “RNA1{m(A)p.m(A)p.m(G)p.r(G)p.r(A)p.m(G)p.m(A)p.m(U)p.r(C)p.r(A)p.r(A)p.m(C)p.m(A)p.m(U)p.r(U)p.r(U)p.m(U)p.m(C)p.m(A)p.r(T)p.r(T)}|RNA2{m(U)p.m(G)p.m(A)p.r(A)p.r(A)p.m(A)p.m(U)p.m(G)p.r(U)p.r(U)p.r(G)p.m(A)p.m(U)p.m(C)p.r(U)p.r(C)p.m(C)p.m(U)p.m(U)p.r(T)p.r(T)}$$$RNA1{StrandType:ss}|RNA2{StrandType:as}$” as the substance, how does the target mRNA knockdown read?
Answer: 45%

Question: With “RNA1{m(A)p.m(A)p.m(G)p.r(G)p.r(A)p.r(G)p.r(A)p.r(U)p.r(C)p.r(A)p.r(A)p.r(C)p.r(A)p.r(U)p.r(U)p.r(U)p.m(U)p.m(C)p.m(A)p.r(T)p.r(T)}|RNA2{m(U)p.m(G)p.m(A)p.r(A)p.r(A)p.r(A)p.r(U)p.r(G)p.r(U)p.r(U)p.r(G)p.r(A)p.r(U)p.r(C)p.r(U)p.r(C)p.m(C)p.m(U)p.m(U)p.r(T)p.r(T)}$$$RNA1{StrandType:ss}|RNA2{StrandType:as}$” as the substance, how does the target mRNA knockdown read?
Answer: 76%

Question: Which target mRNA knockdown does the source give for “RNA1{m(A)p.m(A)p.m(G)p.r(G)p.r(A)p.r(G)p.r(A)p.r(U)p.r(C)p.r(A)p.r(A)p.r(C)p.r(A)p.r(U)p.r(U)p.r(U)p.r(U)p.r(C)p.r(A)p.r(T)p.r(T)}|RNA2{m(U)p.m(G)p.m(A)p.r(A)p.r(A)p.r(A)p.r(U)p.r(G)p.r(U)p.r(U)p.r(G)p.r(A)p.r(U)p.r(C)p.r(U)p.r(C)p.r(C)p.r(U)p.r(U)p.r(T)p.r(T)}$$$RNA1{StrandType:ss}|RNA2{StrandType:as}$” here?
Answer: 60%

Question: For “RNA1{m(A)p.m(A)p.r(C)p.r(C)p.r(C)p.m(A)p.r(C)p.r(C)p.m(A)p.r(C)p.m(A)p.r(G)p.r(C)p.m(U)p.m(A)p.r(G)p.m(A)p.m(A)p.r(C)p.m(U)p.m(U)}|RNA2{m(A)p.m(A)p.r(G)p.m(U)p.m(U)p.r(C)p.m(U)p.m(A)p.r(G)p.r(C)p.m(U)p.r(G)p.m(U)p.r(G)p.r(G)p.m(U)p.r(G)p.r(G)p.r(G)p.m(U)p.m(U)}$$$RNA1{StrandType:ss}|RNA2{StrandType:as}$”, which target mRNA knockdown is on record?
Answer: 7%

Question: For “RNA1{m(A)p.m(A)p.r(C)p.r(C)p.r(C)p.m(A)p.r(C)p.r(C)p.m(A)p.r(C)p.m(A)p.r(G)p.r(C)p.m(U)p.m(A)p.r(G)p.m(A)p.m(A)p.r(C)p.m(U)p.m(U)}|RNA2{r(A)p.r(A)p.r(G)p.r(U)p.r(U)p.r(C)p.m(U)p.m(A)p.r(G)p.r(C)p.r(U)p.r(G)p.r(U)p.r(G)p.r(G)p.r(U)p.r(G)p.r(G)p.r(G)p.r(U)p.r(U)}$$$RNA1{StrandType:ss}|RNA2{StrandType:as}$”, which target mRNA knockdown is on record?
Answer: 44%

Question: With “RNA1{m(A)p.m(A)p.r(C)p.r(C)p.r(C)p.m(A)p.r(C)p.r(C)p.m(A)p.r(C)p.m(A)p.r(G)p.r(C)p.m(U)p.m(A)p.r(G)p.m(A)p.m(A)p.r(C)p.m(U)p.m(U)}|RNA2{r(A)p.r(A)p.r(G)p.r(U)p.r(U)p.r(C)p.r(U)p.r(A)p.r(G)p.r(C)p.r(U)p.r(G)p.r(U)p.r(G)p.r(G)p.r(U)p.r(G)p.r(G)p.r(G)p.r(U)p.r(U)}$$$RNA1{StrandType:ss}|RNA2{StrandType:as}$” as the substance, how does the target mRNA knockdown read?
Answer: 51%

Question: Which target mRNA knockdown does the source give for “RNA1{m(A)p.m(A)p.r(C)p.r(C)p.r(C)p.m(A)p.r(C)p.r(C)p.m(A)p.r(C)p.m(A)p.r(G)p.r(C)p.m(U)p.m(A)p.r(G)p.m(A)p.m(A)p.r(C)p.r(U)p.r(U)}|RNA2{r(A)p.r(A)p.r(G)p.r(U)p.r(U)p.r(C)p.m(U)p.r(A)p.r(G)p.r(C)p.r(U)p.r(G)p.r(U)p.r(G)p.r(G)p.r(U)p.r(G)p.r(G)p.r(G)p.r(U)p.r(U)}$$$RNA1{StrandType:ss}|RNA2{StrandType:as}$” here?
Answer: 32%

Question: Which target mRNA knockdown does the source give for “RNA1{m(A)p.m(A)p.r(C)p.r(C)p.r(C)p.m(A)p.r(C)p.r(C)p.m(A)p.r(C)p.m(A)p.r(G)p.r(C)p.r(U)p.m(A)p.r(G)p.m(A)p.m(A)p.r(C)p.m(U)p.m(U)}|RNA2{r(A)p.r(A)p.r(G)p.r(U)p.r(U)p.r(C)p.r(U)p.r(A)p.r(G)p.r(C)p.r(U)p.r(G)p.r(U)p.r(G)p.r(G)p.r(U)p.r(G)p.r(G)p.r(G)p.r(U)p.r(U)}$$$RNA1{StrandType:ss}|RNA2{StrandType:as}$” here?
Answer: 42%

Question: Which target mRNA knockdown does the source give for “RNA1{m(A)p.m(A)p.r(U)p.m(A)p.m(A)p.m(G)p.r(C)p.m(A)p.m(G)p.r(C)p.r(U)p.r(C)p.m(G)p.r(C)p.m(G)p.r(C)p.r(U)p.r(C)p.r(C)p.r(T)p.r(T)}|RNA2{r(G)p.r(G)p.r(A)p.r(G)p.r(C)p.r(G)p.r(C)p.r(G)p.r(A)p.r(G)p.r(C)p.r(U)p.r(G)p.r(C)p.r(U)p.r(U)p.r(A)p.r(U)p.r(U)p.r(T)p.r(T)}$$$RNA1{StrandType:ss}|RNA2{StrandType:as}$” here?
Answer: 64%

Question: Which target mRNA knockdown does the source give for “RNA1{m(A)p.r(A)p.m(A)p.r(C)p.m(C)p.r(C)p.m(C)p.r(U)p.m(A)p.r(G)p.m(A)p.r(G)p.m(G)p.r(G)p.m(C)p.r(A)p.m(A)p.r(G)p.m(U)p.r(T)p.r(T)}|RNA2{r(A)p.r(C)p.r(U)p.r(U)p.r(G)p.r(C)p.r(C)p.r(C)p.r(U)p.r(C)p.r(U)p.r(A)p.r(G)p.r(G)p.r(G)p.r(G)p.r(U)p.r(U)p.r(U)p.r(T)p.r(T)}$$$RNA1{StrandType:ss}|RNA2{StrandType:as}$” here?
Answer: 62%

Question: Which target mRNA knockdown does the source give for “RNA1{m(A)p.r(A)p.m(A)p.r(C)p.m(C)p.r(U)p.m(C)p.r(A)p.m(G)p.r(C)p.m(C)p.r(C)p.m(U)p.r(A)p.m(A)p.r(C)p.m(G)p.r(G)p.m(U)p.r(T)p.r(T)}|RNA2{r(A)p.m(C)p.m(C)p.r(G)p.r(U)p.r(U)p.r(A)p.r(G)p.r(G)p.r(G)p.m(C)p.r(U)p.r(G)p.r(A)p.r(G)p.r(G)p.r(U)p.r(U)p.r(U)p.r(T)p.r(T)}$$$RNA1{StrandType:ss}|RNA2{StrandType:as}$” here?
Answer: 28%

Question: Which target mRNA knockdown does the source give for “RNA1{m(A)p.r(A)p.m(A)p.r(C)p.m(C)p.r(U)p.m(C)p.r(A)p.m(G)p.r(C)p.m(C)p.r(C)p.m(U)p.r(A)p.m(A)p.r(C)p.m(G)p.r(G)p.m(U)p.r(T)p.r(T)}|RNA2{r(A)p.r(C)p.r(C)p.r(G)p.r(U)p.r(U)p.r(A)p.r(G)p.r(G)p.r(G)p.r(C)p.r(U)p.r(G)p.r(A)p.r(G)p.r(G)p.r(U)p.r(U)p.r(U)p.r(T)p.r(T)}$$$RNA1{StrandType:ss}|RNA2{StrandType:as}$” here?
Answer: 51%

Question: Which target mRNA knockdown does the source give for “RNA1{m(A)p.r(A)p.m(A)p.r(C)p.m(G)p.r(A)p.m(G)p.r(A)p.m(G)p.r(A)p.m(G)p.r(C)p.m(C)p.r(C)p.m(A)p.r(C)p.m(C)p.r(U)p.m(U)p.r(T)p.r(T)}|RNA2{r(A)p.r(A)p.r(G)p.r(G)p.r(U)p.r(G)p.r(G)p.r(G)p.m(C)p.r(U)p.m(C)p.r(U)p.m(C)p.r(U)p.m(C)p.r(G)p.r(U)p.r(U)p.r(U)p.r(T)p.r(T)}$$$RNA1{StrandType:ss}|RNA2{StrandType:as}$” here?
Answer: 37%

Question: For “RNA1{m(A)p.r(A)p.m(A)p.r(C)p.m(G)p.r(U)p.m(G)p.r(A)p.m(C)p.r(U)p.m(U)p.r(U)p.m(G)p.r(G)p.m(U)p.r(U)p.m(C)p.r(C)p.m(U)p.r(T)p.r(T)}|RNA2{r(A)p.m(G)p.m(G)p.r(A)p.r(A)p.r(C)p.r(C)p.r(A)p.r(A)p.r(A)p.m(G)p.r(U)p.r(C)p.r(A)p.r(C)p.m(G)p.r(U)p.r(U)p.r(U)p.r(T)p.r(T)}$$$RNA1{StrandType:ss}|RNA2{StrandType:as}$”, which target mRNA knockdown is on record?
Answer: 37%

Question: For “RNA1{m(A)p.r(A)p.m(A)p.r(G)p.m(C)p.r(G)p.m(G)p.r(U)p.m(G)p.r(G)p.m(A)p.r(U)p.m(C)p.r(A)p.m(G)p.r(C)p.m(U)p.r(C)p.m(U)p.r(T)p.r(T)}|RNA2{r(A)p.m(G)p.r(A)p.m(G)p.r(C)p.r(U)p.r(G)p.r(A)p.r(U)p.r(C)p.r(C)p.r(A)p.r(C)p.r(C)p.m(G)p.r(C)p.r(U)p.r(U)p.r(U)p.r(T)p.r(T)}$$$RNA1{StrandType:ss}|RNA2{StrandType:as}$”, which target mRNA knockdown is on record?
Answer: 43%

Question: Which target mRNA knockdown does the source give for “RNA1{m(A)p.r(A)p.m(A)p.r(G)p.m(G)p.r(G)p.m(G)p.r(A)p.m(G)p.r(U)p.m(U)p.r(G)p.m(C)p.r(U)p.m(G)p.r(G)p.m(A)p.r(A)p.m(G)p.r(T)p.r(T)}|RNA2{r(C)p.r(U)p.r(U)p.r(C)p.r(C)p.r(A)p.r(G)p.r(C)p.m(A)p.m(A)p.r(C)p.r(U)p.r(C)p.r(C)p.r(C)p.r(C)p.r(U)p.r(U)p.r(U)p.r(T)p.r(T)}$$$RNA1{StrandType:ss}|RNA2{StrandType:as}$” here?
Answer: 47%
